Values joined by “and” are separate entries in the source; they are usually repeats but may differ in a detail not shown here. Equal entries are not always repeated. Toxic doses and inconclusive results are not listed.
Tested on: BDF1 mice, P388 leukemia ip, median survival T/C
Experiment: NCI In Vivo Anticancer Drug Screen. Data for tumor model P388 Leukemia (intraperitoneal) in B6D2F1 (BDF1) mice
Conditions: endpoint: median survival time, higher = longer survival
How it was run: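 Read-out is survival of treated animals expressed relative to the vehicle group, as a T/C ratio.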

[1] = dose: 6.25 mg/kg/injection, schedule: Q01DX009 (ip), vehicle: water
[2] = dose: 12.5 mg/kg/injection, schedule: Q01DX009 (ip), vehicle: water
[3] = dose: 25.0 mg/kg/injection, schedule: Q01DX009 (ip), vehicle: water
[4] = dose: 200.0 mg/kg/injection, schedule: Q04DX003 (ip), vehicle: Klucel (hydroxypropylcellulose) (HPC)
[5] = dose: 12.5 mg/kg/injection, schedule: Q01DX009 (ip), vehicle: Klucel (hydroxypropylcellulose) (HPC)
[6] = dose: 25.0 mg/kg/injection, schedule: Q01DX009 (ip), vehicle: Klucel (hydroxypropylcellulose) (HPC)
[7] = dose: 25.0 mg/kg/injection, schedule: Q04DX003 (ip), vehicle: Klucel (hydroxypropylcellulose) (HPC)
[8] = dose: 50.0 mg/kg/injection, schedule: Q01DX009 (ip), vehicle: Klucel (hydroxypropylcellulose) (HPC)
[9] = dose: 50.0 mg/kg/injection, schedule: Q04DX003 (ip), vehicle: Klucel (hydroxypropylcellulose) (HPC)
[10] = dose: 100.0 mg/kg/injection, schedule: Q01DX009 (ip), vehicle: Klucel (hydroxypropylcellulose) (HPC)
[11] = dose: 100.0 mg/kg/injection, schedule: Q04DX003 (ip), vehicle: Klucel (hydroxypropylcellulose) (HPC)
[12] = dose: 200.0 mg/kg/injection, schedule: Q01DX009 (ip), vehicle: Klucel (hydroxypropylcellulose) (HPC)
[13] = dose: 400.0 mg/kg/injection, schedule: Q01DX009 (ip), vehicle: Klucel (hydroxypropylcellulose) (HPC)
[14] = dose: 400.0 mg/kg/injection, schedule: Q04DX003 (ip), vehicle: Klucel (hydroxypropylcellulose) (HPC)

Q: Which T/C (dose: 1.0 mg/kg/injection, schedule: Q01DX009 (ip), vehicle: water) does the source give for `COc1cc2c[n+](C)c3c4cc5c(cc4ccc3c2cc1OC)OCO5` here?
A: 150 % of control

Q: What about the T/C (dose: 4.0 mg/kg/injection, schedule: Q01DX009 (ip), vehicle: saline) of the same compound?
A: 161 % of control

Q: What about the T/C (dose: 5.0 mg/kg/injection, schedule: Q01DX009 (ip), vehicle: saline) of the same compound?
A: 185 % of control

Q: What about the T/C [1] of the same compound?
A: 182 % of control

Q: And the T/C (dose: 8.0 mg/kg/injection, schedule: Q01DX009 (ip), vehicle: saline)?
A: 176 % of control

Q: What about the T/C (dose: 10.0 mg/kg/injection, schedule: Q01DX005 (ip), vehicle: saline) of the same compound?
A: 154 % of control

Q: What about the T/C (dose: 10.0 mg/kg/injection, schedule: Q01DX009 (ip), vehicle: saline) of the same compound?
A: 200 % of control

Q: And the T/C (dose: 10.0 mg/kg/injection, schedule: Q04DX003 (ip), vehicle: saline)?
A: 185 % of control

Q: What about the T/C (dose: 12.0 mg/kg/injection, schedule: Q01DX009 (ip), vehicle: water) of the same compound?
A: 177 % of control

Q: What about the T/C [2] of the same compound?
A: 204 % of control

Q: What about the T/C (dose: 20.0 mg/kg/injection, schedule: Q01DX005 (ip), vehicle: saline) of the same compound?
A: 158 % of control

Q: And the T/C (dose: 20.0 mg/kg/injection, schedule: Q04DX003 (ip), vehicle: saline)?
A: 190 % of control

Q: And the T/C [3]?
A: 100 % of control

Q: What about the T/C (dose: 28.8 mg/kg/injection, schedule: Q04DX003 (ip), vehicle: Klucel (hydroxypropylcellulose) (HPC)) of the same compound?
A: 193 % of control

Q: And the T/C (dose: 40.0 mg/kg/injection, schedule: Q01DX005 (ip), vehicle: saline)?
A: 183 % of control

Q: And the T/C (dose: 43.2 mg/kg/injection, schedule: Q04DX003 (ip), vehicle: Klucel (hydroxypropylcellulose) (HPC))?
A: 196 % of control

Q: What about the T/C (dose: 48.0 mg/kg/injection, schedule: Q04DX003 (ip), vehicle: Klucel (hydroxypropylcellulose) (HPC)) of the same compound?
A: 200 % of control

Q: What about the T/C (dose: 50.0 mg/kg/injection, schedule: Q04DX002 (ip), vehicle: Klucel (hydroxypropylcellulose) (HPC)) of the same compound?
A: 225 % of control and 153 % of control

Q: What about the T/C (dose: 55.0 mg/kg/injection, schedule: Q04DX003 (ip), vehicle: other) of the same compound?
A: 172 % of control

Q: What about the T/C (dose: 72.0 mg/kg/injection, schedule: Q04DX003 (ip), vehicle: Klucel (hydroxypropylcellulose) (HPC)) of the same compound?
A: 188 % of control

Q: What about the T/C (dose: 80.0 mg/kg/injection, schedule: Q01DX005 (ip), vehicle: saline) of the same compound?
A: 103 % of control

Q: What about the T/C (dose: 80.0 mg/kg/injection, schedule: Q01DX009 (ip), vehicle: saline) of the same compound?
A: 186 % of control

Q: What about the T/C (dose: 80.0 mg/kg/injection, schedule: Q04DX003 (ip), vehicle: Klucel (hydroxypropylcellulose) (HPC)) of the same compound?
A: 200 % of control

Q: And the T/C (dose: 80.0 mg/kg/injection, schedule: Q04DX003 (ip), vehicle: saline)?
A: 260 % of control

Q: What about the T/C (dose: 92.0 mg/kg/injection, schedule: Q04DX003 (ip), vehicle: other) of the same compound?
A: 162 % of control

Q: And the T/C (dose: 120.0 mg/kg/injection, schedule: Q01DX009 (ip), vehicle: saline)?
A: 95 % of control

Q: And the T/C (dose: 133.3 mg/kg/injection, schedule: Q04DX003 (ip), vehicle: Klucel (hydroxypropylcellulose) (HPC))?
A: 170 % of control

Q: And the T/C [4]?
A: 160 % of control

Q: Which results are given for `O=C1CCCC(=O)C1C(C[N+](=O)[O-])c1ccccc1` (centres undefined)?
A: T/C [5]: 95 % of control and 100 % of control; T/C [6]: 97 % of control and 119 % of control; T/C [7]: 100 % of control; T/C [8]: 88 % of control; T/C [9]: 104 % of control; T/C [10]: 96 % of control and 110 % of control; T/C [11]: 108 % of control

Q: For `Cc1nnc2c(=S)[nH]ccn12`, which T/C (dose: 100.0 mg/kg/injection, schedule: Q01DX001 (ip), vehicle: saline with Tween-80) is on record?
A: 113 % of control

Q: And the T/C (dose: 200.0 mg/kg/injection, schedule: Q01DX001 (ip), vehicle: saline with Tween-80)?
A: 106 % of control

Q: What about the T/C (dose: 400.0 mg/kg/injection, schedule: Q01DX001 (ip), vehicle: saline with Tween-80) of the same compound?
A: 100 % of control

Q: Which T/C (dose: 25.0 mg/kg/injection, schedule: Q01DX009 (ip), vehicle: saline) does the source give for `CC(=O)OCC(=O)C1CCC=CC1OC(C)=O` (centres undefined) here?
A: 92 % of control

Q: And the T/C (dose: 50.0 mg/kg/injection, schedule: Q01DX009 (ip), vehicle: saline)?
A: 104 % of control

Q: What about the T/C (dose: 50.0 mg/kg/injection, schedule: Q04DX003 (ip), vehicle: saline) of the same compound?
A: 95 % of control

Q: And the T/C (dose: 100.0 mg/kg/injection, schedule: Q01DX009 (ip), vehicle: saline)?
A: 98 % of control

Q: And the T/C (dose: 100.0 mg/kg/injection, schedule: Q04DX003 (ip), vehicle: saline)?
A: 101 % of control

Q: And the T/C (dose: 200.0 mg/kg/injection, schedule: Q01DX009 (ip), vehicle: saline)?
A: 104 % of control

Q: What about the T/C (dose: 200.0 mg/kg/injection, schedule: Q04DX003 (ip), vehicle: saline) of the same compound?
A: 98 % of control and 120 % of control

Q: And the T/C (dose: 400.0 mg/kg/injection, schedule: Q01DX009 (ip), vehicle: saline)?
A: 88 % of control

Q: What about the T/C (dose: 400.0 mg/kg/injection, schedule: Q04DX003 (ip), vehicle: saline) of the same compound?
A: 93 % of control and 117 % of control

Q: What does the source list for `CC12CCC3c4ccccc4CCC3(CO1)C2` (centres undefined)?
A: T/C [10]: 100 % of control; T/C [11]: 104 % of control; T/C [12]: 100 % of control; T/C [4]: 108 % of control; T/C [13]: 100 % of control; T/C [14]: 100 % of control

Q: With `CC(O)C#CC(C)O` (centres undefined) as the compound, how does the T/C [5] read?
A: 91 % of control

Q: And the T/C (dose: 12.5 mg/kg/injection, schedule: Q04DX003 (ip), vehicle: Klucel (hydroxypropylcellulose) (HPC))?
A: 118 % of control

Q: What about the T/C [6] of the same compound?
A: 91 % of control

Q: And the T/C [7]?
A: 104 % of control

Q: What about the T/C [8] of the same compound?
A: 95 % of control

Q: And the T/C [9]?
A: 109 % of control

Q: How did the T/C [9] turn out when `CCC(=O)Nc1cc(Cl)ccc1C` was run?
A: 118 % of control

Q: What about the T/C [10] of the same compound?
A: 109 % of control

Q: What about the T/C [11] of the same compound?
A: 109 % of control

Q: And the T/C [12]?
A: 90 % of control

Q: What about the T/C [4] of the same compound?
A: 104 % of control

Q: What about the T/C [13] of the same compound?
A: 90 % of control

Q: And the T/C [14]?
A: 100 % of control

Q: Which T/C (dose: 3.12 mg/kg/injection, schedule: Q01DX009 (ip), vehicle: water) does the source give for `c1ccc(-c2cc[s+]s2)cc1` here?
A: 110 % of control and 114 % of control

Q: And the T/C [1]?
A: 94 % of control and 103 % of control and 120 % of control

Q: What about the T/C [2] of the same compound?
A: 100 % of control and 103 % of control and 123 % of control

Q: What about the T/C (dose: 12.5 mg/kg/injection, schedule: Q04DX003 (ip), vehicle: water) of the same compound?
A: 116 % of control

Q: What about the T/C [3] of the same compound?
A: 100 % of control

Q: What about the T/C (dose: 25.0 mg/kg/injection, schedule: Q04DX003 (ip), vehicle: water) of the same compound?
A: 104 % of control

Q: And the T/C (dose: 50.0 mg/kg/injection, schedule: Q01DX009 (ip), vehicle: water)?
A: 92 % of control and 116 % of control

Q: What about the T/C (dose: 200.0 mg/kg/injection, schedule: Q04DX003 (ip), vehicle: water) of the same compound?
A: 101 % of control

Q: `CCOC(=O)C1=C(C)NC(C)=C(C(=O)OCC)C1c1cccc([N+](=O)[O-])c1` was tested. Which T/C [8] did it give?
A: 105 % of control

Q: What about the T/C [10] of the same compound?
A: 100 % of control

Q: What about the T/C [12] of the same compound?
A: 90 % of control

Q: Which results are given for `CCOC(=O)c1ccc(NCC(=N)N)cc1`?
A: T/C (dose: 37.5 mg/kg/injection, schedule: Q01DX001 (ip), vehicle: saline sonified): 100 % of control; T/C (dose: 75.0 mg/kg/injection, schedule: Q01DX001 (ip), vehicle: saline sonified): 100 % of control; T/C (dose: 150.0 mg/kg/injection, schedule: Q01DX001 (ip), vehicle: saline sonified): 100 % of control

Q: Which results are given for `C[CH2][Pb]([CH2]C)([CH2]C)[O]C(=O)c1ccc(N)cc1`?
A: T/C (dose: 0.75 mg/kg/injection, schedule: Q01DX009 (ip), vehicle: Klucel (hydroxypropylcellulose) (HPC)): 100 % of control; T/C (dose: 1.5 mg/kg/injection, schedule: Q01DX009 (ip), vehicle: Klucel (hydroxypropylcellulose) (HPC)): 110 % of control; T/C (dose: 1.56 mg/kg/injection, schedule: Q01DX009 (ip), vehicle: Klucel (hydroxypropylcellulose) (HPC)): 111 % of control; T/C (dose: 3.0 mg/kg/injection, schedule: Q01DX009 (ip), vehicle: Klucel (hydroxypropylcellulose) (HPC)): 110 % of control and 117 % of control; T/C (dose: 3.12 mg/kg/injection, schedule: Q01DX009 (ip), vehicle: Klucel (hydroxypropylcellulose) (HPC)): 114 % of control and 119 % of control; T/C (dose: 6.0 mg/kg/injection, schedule: Q01DX009 (ip), vehicle: Klucel (hydroxypropylcellulose) (HPC)): 119 % of control and 122 % of control; T/C (dose: 6.25 mg/kg/injection, schedule: Q01DX009 (ip), vehicle: Klucel (hydroxypropylcellulose) (HPC)): 104 % of control; T/C (dose: 12.0 mg/kg/injection, schedule: Q01DX009 (ip), vehicle: Klucel (hydroxypropylcellulose) (HPC)): 99 % of control; T/C [5]: 93 % of control and 106 % of control

Q: For `C/C=C/C=C/C(=O)c1ccc(OC)cc1O`, which T/C (dose: 50.0 mg/kg/injection, schedule: Q01DX009 (ip), vehicle: saline with Tween-80) is on record?
A: 109 % of control

Q: And the T/C (dose: 100.0 mg/kg/injection, schedule: Q01DX009 (ip), vehicle: saline with Tween-80)?
A: 109 % of control

Q: How did the T/C [10] turn out when `CC1=C(N2CCN(c3ccc(Cl)cc3)CC2)C(=O)CC(C)(C)C1` was run?
A: 110 % of control

Q: And the T/C [12]?
A: 105 % of control

Q: And the T/C [13]?
A: 100 % of control

Reference: PubChem BioAssay AID328 (DTP/NCI, 2004)
